Drawing on EP4574817A1 (LoQus23 Therapeutics Limited, priority 2023, dated 2025), this text covers IC50 for 34 molecules.

The target in the experiment is T1, MutSβ (Homo sapiens, UniProt P20585+P43246).
T1 construct: purchased AMRI
Put plainly: MutSβ ADP Glo Assay. It is filed as biochemical. To be noted: 20nM MutSβ, 30nM CAG DNA, 25 µM ATP, 2 hours at room temperature. How it is done:
Biological Example A - MutSβ Assay
• MutSβ (supplied by AMRI) stored at -70°C • ADP Glo Kinase Assay Kit (Promega: V9102) stored at -20°C • ATP (supplied within the ADP Glo Kit) stored at -20°C • 1M KCI (Sigma Aldrich: P9333) stored at 2-8°C • 1 M HEPES pH 7.5 (Gibco: M15630-080) stored at 2-8°C • 1M MgCl2 (Sigma Aldrich: M1028-100mL) stored at 2-8°C • Tween-20 (Sigma Aldrich: P1379) (10% solution) stored at 2-8°C • 500mM DTT (Sigma Aldrich: 10197777001) stored at -20°C • CAG loop DNA for MutSβ (made in house) stored at -20°C • MilliQ water stored at room temperature
• 1. Prepare the buffer fresh each day • 2. Take the enzyme from the freezer, thaw in room temperature water and centrifuge at 13,000 rpm for 10 minutes at 2-8C, then make up enzyme and ATP stocks • 3. Quality Control the multidrop head to a %CV of <2% • 4. Add 3µL of 33.34nM MutSβ and 50.01nM CAG looped DNA solution […] to each well in columns 1 and 3-23 of the plate • 5. Pre-incubate the MutSβ and buffer mix for 10 minutes with the compounds • 6. Wash the multidrop head through with MilliQ water (for at least 30 seconds) • 7. Add 3µL of MutSβ Assay buffer (without enzyme) to columns 2 and 24 for the vehicle controls • 8. Wash the multidrop head through with MilliQ water (for at least 30 seconds) • 9. Add 2µL of 62.5µM ATP to each well of the whole plate, then wash with MilliQ water (for a minimum of 30 seconds) • 10. Centrifuge plate for 1 minute at 1000 rpm • 11. Incubate for 2 hours at room temperature • 12. Add 5µL of ADP Glo reagent to each well of the whole plate and wash the multidrop head with MilliQ water (for a minimum of 30 seconds) • 13. Incubate for 40 minutes at room temperature (minimum requirement) • 14. Add 10µL of Kinase Detection Reagent to each well of the whole plate • 15. Wash the multidrop head with MilliQ water more than 1 minute and then dry • 16. Remove the head and put the cover back on for overnight storage • 17. Incubate for 30 minutes at room temperature (minimum requirement) • 18. Read on a microplate reader
Background: In ADP-Glo the light output rises with the ADP produced.

T1 sequence (P43246 whole entry): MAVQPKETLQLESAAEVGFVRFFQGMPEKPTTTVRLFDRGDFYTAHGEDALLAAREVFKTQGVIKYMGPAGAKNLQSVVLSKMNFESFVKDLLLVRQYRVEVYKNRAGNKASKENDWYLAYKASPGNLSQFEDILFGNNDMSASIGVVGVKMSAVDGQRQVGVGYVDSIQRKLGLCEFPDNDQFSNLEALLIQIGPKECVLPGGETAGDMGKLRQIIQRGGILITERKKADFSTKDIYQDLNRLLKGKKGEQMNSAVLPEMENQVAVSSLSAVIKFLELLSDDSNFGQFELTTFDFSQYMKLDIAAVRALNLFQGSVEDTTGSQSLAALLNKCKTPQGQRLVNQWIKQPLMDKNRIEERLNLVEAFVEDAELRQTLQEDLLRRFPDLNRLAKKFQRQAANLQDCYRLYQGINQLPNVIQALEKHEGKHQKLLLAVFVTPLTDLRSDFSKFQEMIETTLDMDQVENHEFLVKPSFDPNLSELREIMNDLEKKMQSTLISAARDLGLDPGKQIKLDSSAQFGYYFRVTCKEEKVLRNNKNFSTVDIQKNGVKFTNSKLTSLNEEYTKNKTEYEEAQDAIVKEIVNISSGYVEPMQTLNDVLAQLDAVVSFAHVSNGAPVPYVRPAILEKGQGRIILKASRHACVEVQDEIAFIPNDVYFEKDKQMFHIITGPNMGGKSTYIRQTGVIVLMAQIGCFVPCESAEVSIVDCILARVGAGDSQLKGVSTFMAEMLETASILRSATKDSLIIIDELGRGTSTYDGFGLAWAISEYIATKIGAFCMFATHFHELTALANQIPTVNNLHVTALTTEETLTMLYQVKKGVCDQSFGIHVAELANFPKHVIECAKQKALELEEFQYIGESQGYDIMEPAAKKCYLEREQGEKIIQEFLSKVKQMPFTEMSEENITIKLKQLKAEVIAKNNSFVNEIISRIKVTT
T1 sequence (P20585 whole entry): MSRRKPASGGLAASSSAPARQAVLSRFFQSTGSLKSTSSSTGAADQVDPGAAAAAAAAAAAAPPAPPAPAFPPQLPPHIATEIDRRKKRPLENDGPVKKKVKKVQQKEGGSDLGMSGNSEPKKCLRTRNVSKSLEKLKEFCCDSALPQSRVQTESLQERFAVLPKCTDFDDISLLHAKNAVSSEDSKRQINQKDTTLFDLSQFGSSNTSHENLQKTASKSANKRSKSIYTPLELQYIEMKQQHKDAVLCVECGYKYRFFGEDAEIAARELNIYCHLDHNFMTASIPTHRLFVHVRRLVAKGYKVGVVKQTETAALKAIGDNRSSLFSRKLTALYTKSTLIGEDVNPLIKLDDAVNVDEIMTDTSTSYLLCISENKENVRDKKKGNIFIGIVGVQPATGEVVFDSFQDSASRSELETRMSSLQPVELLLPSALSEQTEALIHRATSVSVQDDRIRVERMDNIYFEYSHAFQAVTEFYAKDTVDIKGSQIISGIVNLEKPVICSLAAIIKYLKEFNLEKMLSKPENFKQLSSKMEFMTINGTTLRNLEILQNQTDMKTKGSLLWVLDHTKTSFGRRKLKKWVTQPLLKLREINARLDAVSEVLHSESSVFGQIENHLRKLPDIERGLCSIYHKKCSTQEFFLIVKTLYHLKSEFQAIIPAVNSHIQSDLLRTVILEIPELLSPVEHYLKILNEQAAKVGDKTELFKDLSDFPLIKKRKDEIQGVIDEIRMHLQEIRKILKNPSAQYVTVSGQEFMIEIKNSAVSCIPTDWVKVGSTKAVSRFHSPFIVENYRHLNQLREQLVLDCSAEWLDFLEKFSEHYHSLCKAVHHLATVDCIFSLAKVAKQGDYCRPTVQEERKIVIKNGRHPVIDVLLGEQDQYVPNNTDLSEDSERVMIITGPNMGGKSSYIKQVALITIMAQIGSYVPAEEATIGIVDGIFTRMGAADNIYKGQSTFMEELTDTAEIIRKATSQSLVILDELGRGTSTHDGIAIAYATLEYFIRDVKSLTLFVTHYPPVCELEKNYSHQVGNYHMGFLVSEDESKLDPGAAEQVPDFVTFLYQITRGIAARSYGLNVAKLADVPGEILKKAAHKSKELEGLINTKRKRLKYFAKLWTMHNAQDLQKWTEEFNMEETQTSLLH

In turn, `CNS(=O)(=O)OCC(=O)Nc1nc(C)c(Cc2cccc(Cl)c2F)s1` [Example 53, 2-((5-(3-chloro-2-fluorobenzyl)-4-methylthiazol-2-yl)amino)-2-oxoethyl methylsulfamate] yielded an IC50 of 1000 to 10000 nM. `CNS(=O)(=O)OCC(=O)Nc1nc(C(C)C)c(Cc2ccc(C)cc2)s1` [Example 37, 2-((4-isopropyl-5-(4-methylbenzyl)thiazol-2-yl)amino)-2-oxoethyl methylsulfamate] yielded an IC50 of 10000 to 50000 nM. The molecule `Cc1nc(NC(=O)COS(=O)(=O)N(C)C)sc1Cc1ccc(F)cc1` [Example 4, 2-((5-(4-fluorobenzyl)-4-methylthiazol-2-yl)amino)-2-oxoethyl dimethylsulfamate] yielded an IC50 of 500 to 1000 nM.

`COCCNS(=O)(=O)OCC(=O)Nc1nc(C)c(Cc2cccc(Cl)c2)s1` [Example 8, 2-((5-(3-chlorobenzyl)-4-methylthiazol-2-yl)amino)-2-oxoethyl (2-methoxyethyl)sulfamate]: the IC50 lay in the range of 500 to 1000 nM. The figure for `Cc1nc(NC(=O)COS(=O)(=O)N(C)C)sc1Cc1cccc(C(F)(F)F)c1` [Example 13, 2-((4-methyl-5-(3-(trifluoromethyl)benzyl)thiazol-2-yl)amino)-2-oxoethyl dimethylsulfamate] is 1000 to 10000 nM.

As for `Cc1ccc(Cc2sc(NC(=O)COS(=O)(=O)N(C)C)nc2C)cc1` [Example 20, 2-((4-methyl-5-(4-methylbenzyl)thiazol-2-yl)amino)-2-oxoethyl dimethylsulfamate], the IC50 lay within 1000 to 10000 nM. The figure for `Cc1ccc(Cc2sc(NC(=O)COS(=O)(=O)NC(C)C)nc2C)cc1` [Example 23, 2-((4-methyl-5-(4-methylbenzyl)thiazol-2-yl)amino)-2-oxoethyl isopropylsulfamate] is 1000 to 10000 nM; for `Cc1ccc(Cc2sc(NC(=O)COS(=O)(=O)NCc3ccccc3)nc2C)cc1` [Example 45, 2-((4-methyl-5-(4-methylbenzyl)thiazol-2-yl)amino)-2-oxoethyl benzylsulfamate] it is 1000 to 10000 nM. For `CNS(=O)(=O)OCC(=O)Nc1nc(C2CC2)c(Cc2ccc(C)cc2)s1` [Example 36, 2-((4-cyclopropyl-5-(4-methylbenzyl)thiazol-2-yl)amino)-2-oxoethyl methylsulfamate], the IC50 was 1000 to 10000 nM.

Consider `CNS(=O)(=O)OCC(=O)Nc1nc(C)c(Oc2cccc(Cl)c2)s1` [Example 61, 2-((5-(3-chlorophenoxy)-4-methylthiazol-2-yl)amino)-2-oxoethyl methylsulfamate], for which the half-inhibitory concentration (IC50) was in the range of 500 to 1000 nM. In turn, `CNS(=O)(=O)OCC(=O)Nc1nc(C=O)c(Cc2cccc(Cl)c2)s1` [Example 56, 2-((5-(3-chlorobenzyl)-4-formylthiazol-2-yl)amino)-2-oxoethyl methylsulfamate] came in with an IC50 of 1000 to 10000 nM. The molecule `CNS(=O)(=O)OCC(=O)Nc1nc(C)c(Cc2cc(F)cc(Cl)c2)s1` [Example 54, 2-((5-(3-chloro-5-fluorobenzyl)-4-methylthiazol-2-yl)amino)-2-oxoethyl methylsulfamate] yielded a concentration for half-maximal inhibition (IC50) of 1000 to 10000 nM. Consider `Cc1ccc(Cc2sc(NC(=O)COS(=O)(=O)N3CCOCC3)nc2C)cc1` [Example 9, 2-((4-methyl-5-(4-methylbenzyl)thiazol-2-yl)amino)-2-oxoethyl morpholine-4-sulfonate], for which the IC50 fell in the range of 500 to 1000 nM. For “2-((4-methyl-5-(4-methylbenzyl)thiazol-2-yl)amino)-2-oxoethyl isobutylsulfamate [Example 17]” the value was 10000 to 50000 nM.

Turning to `Cc1ccc(Cc2sc(NC(=O)COS(=O)(=O)N(C)Cc3ccccc3)nc2C)cc1` [Example 42, 2-((4-methyl-5-(4-methylbenzyl)thiazol-2-yl)amino)-2-oxoethyl benzyl(methyl)sulfamate], the IC50 was in the range of 1000 to 10000 nM. In the case of `CCc1nc(NC(=O)COS(=O)(=O)NC)sc1Cc1ccc(C)cc1` [Example 18, 2-((4-ethyl-5-(4-methylbenzyl)thiazol-2-yl)amino)-2-oxoethyl methylsulfamate], the IC50 lay in the range of 1000 to 10000 nM. Molecule `CNS(=O)(=O)OCC(=O)Nc1nc(C)c(Cc2ccc(OC)cc2)s1` [Example 26, 2-((5-(4-methoxybenzyl)-4-methylthiazol-2-yl)amino)-2-oxoethyl methylsulfamate] showed an IC50 of 1000 to 10000 nM.

`Cc1ccc(Cc2sc(NC(=O)COS(=O)(=O)NC(C)(C)C)nc2C)cc1` [Example 43, 2-((4-methyl-5-(4-methylbenzyl)thiazol-2-yl)amino)-2-oxoethyl tert-butylsulfamate] came in with an IC50 of 10000 to 50000 nM. `Cc1ccc(Cc2sc(NC(=O)COS(=O)(=O)N3CCC3)nc2C)cc1` [Example 25, 2-((4-methyl-5-(4-methylbenzyl)thiazol-2-yl)amino)-2-oxoethyl azetidine-1-sulfonate]: the IC50 was no more than 500 nM. With `CCN(C(=O)COS(=O)(=O)NC)c1nc(C)c(Cc2cccc(Cl)c2)s1` [Example 57, 2-((5-(3-chlorobenzyl)-4-methylthiazol-2-yl)(ethyl)amino)-2-oxoethyl methylsulfamate], the IC50 was in the range of 500 to 1000 nM. On to `CNS(=O)(=O)OCC(=O)Nc1nc(C)c(Cc2ccccc2Cl)s1` [Example 16, 2-((5-(2-chlorobenzyl)-4-methylthiazol-2-yl)amino)-2-oxoethyl methylsulfamate], for which the half-maximal inhibitory concentration (IC50) is 1000 to 10000 nM. For `Cc1nc(NC(=O)COS(=O)(=O)N(C)C)sc1CCc1ccccc1` [Example 35, 2-((4-methyl-5-phenethylthiazol-2-yl)amino)-2-oxoethyl dimethylsulfamate] the value was 10000 to 50000 nM; for `CNS(=O)(=O)OCC(=O)Nc1nc(C)c(C(C)(C)c2cccc(Cl)c2)s1` [Example 52, 2-((5-(2-(3-chlorophenyl)propan-2-yl)-4-methylthiazol-2-yl)amino)-2-oxoethyl methylsulfamate], 10000 to 50000 nM.

As for `Cc1ccc(Cc2sc(NC(=O)COS(N)(=O)=O)nc2C)cc1` [Example 3, 2-((4-methyl-5-(4-methylbenzyl)thiazol-2-yl)amino)-2-oxoethyl sulfamate], the IC50 was in the range of 1000 to 10000 nM. The figure for `Cc1nc(NC(=O)COS(=O)(=O)N(C)C)sc1Cc1ccccc1F` [Example 22, 2-((5-(2-fluorobenzyl)-4-methylthiazol-2-yl)amino)-2-oxoethyl dimethylsulfamate] is 1000 to 10000 nM; for `CNS(=O)(=O)OCC(=O)Nc1nc(C)c(Cc2ccccc2C)s1` [Example 11, 2-((4-methyl-5-(2-methylbenzyl)thiazol-2-yl)amino)-2-oxoethyl methylsulfamate] it is 10000 to 50000 nM. For `CNS(=O)(=O)OCC(=O)Nc1nc(CO)c(Cc2ccc(C)cc2)s1` [Example 51, 2-((4-(hydroxymethyl)-5-(4-methylbenzyl)thiazol-2-yl)amino)-2-oxoethyl methylsulfamate] the value was 10000 to 50000 nM; for `Cc1ccc(Cc2sc(NC(=O)COS(=O)(=O)N3CC(F)C3)nc2C)cc1` [Example 21, 2-((4-methyl-5-(4-methylbenzyl)thiazol-2-yl)amino)-2-oxoethyl 3-fluoroazetidine-1-sulfonate], 500 to 1000 nM; for `CNS(=O)(=O)OCC(=O)Nc1nc(C)c(Cc2ccc(C)cc2)s1` [Example 47, 2-((4-methyl-5-(4-methylbenzyl)thiazol-2-yl)amino)-2-oxoethyl methylsulfamate], 1000 to 10000 nM. In the case of `COCCN(C)S(=O)(=O)OCC(=O)Nc1nc(C)c(Cc2ccc(C)cc2)s1` [Example 29, 2-((4-methyl-5-(4-methylbenzyl)thiazol-2-yl)amino)-2-oxoethyl (2-methoxyethyl)(methyl)sulfamate], the IC50 lay within 500 to 1000 nM. As to `Cc1ccc(Cc2sc(NC(=O)COS(=O)(=O)NC3CC3)nc2C)cc1` [Example 6, 2-((4-methyl-5-(4-methylbenzyl)thiazol-2-yl)amino)-2-oxoethyl cyclopropylsulfamate], the IC50 is 1000 to 10000 nM.

The molecule `CNS(=O)(=O)OCC(=O)Nc1nc(C)c(Cc2ccc(Cl)cc2)s1` [Example 30, 2-((5-(4-chlorobenzyl)-4-methylthiazol-2-yl)amino)-2-oxoethyl methylsulfamate] registered an IC50 of 1000 to 10000 nM. As for `CNS(=O)(=O)OCC(=O)Nc1nc(C)c(Cc2ccc(C(F)(F)F)cc2)s1` [Example 32, 2-((4-methyl-5-(4-(trifluoromethyl)benzyl)thiazol-2-yl)amino)-2-oxoethyl methylsulfamate], the IC50 is 1000 to 10000 nM. Turning to `CNS(=O)(=O)OCC(=O)Nc1nc(C)c(Cc2cc(Cl)ccc2F)s1` [Example 55, 2-((5-(5-chloro-2-fluorobenzyl)-4-methylthiazol-2-yl)amino)-2-oxoethyl methylsulfamate], the IC50 lay within 1000 to 10000 nM.

By IC50 is commonly meant the concentration at which inhibition is half-maximal.
